Experimental data reported in PMC6753226, “Highly Efficient Preparation of Cyclic Dinucleotides via Engineering of Dinucleotide Cyclases in Escherichia coli” (Frontiers in Microbiology, 2019).

Biological target: T1, STING (Homo sapiens, UniProt Q86WV6, H232R)
T1 construct: gene STING1; carboxy-terminal domain (STING^R232/CTD; CTD printed as residues 149–379)
Assay: isothermal titration calorimetry (ITC)
Assay type: binding

T1 sequence (Q86WV6 149-379 H232R): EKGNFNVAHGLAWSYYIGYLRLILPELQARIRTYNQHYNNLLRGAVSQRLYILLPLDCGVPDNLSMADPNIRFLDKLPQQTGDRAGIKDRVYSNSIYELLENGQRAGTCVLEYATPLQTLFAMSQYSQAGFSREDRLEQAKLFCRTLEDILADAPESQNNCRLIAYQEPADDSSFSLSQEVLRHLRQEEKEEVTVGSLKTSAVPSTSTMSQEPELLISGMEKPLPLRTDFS

`Nc1nc2c(ncn2[C@@H]2O[C@@H]3CO[P@](=O)(O)O[C@H]4[C@@H](O)[C@H](n5cnc6c(=O)[nH]c(N)nc65)O[C@@H]4CO[P@](=O)(O)O[C@H]3[C@H]2O)c(=O)[nH]1` [c-di-GMP] was tested, and the Kd was 4.09 µM.
